Where a name gives a salt, the structure may show the parent alone. Read-outs that look alike come from different tables or passages of the source.
Molecular target: T1, His6-AspH315–758 (human aspartate/asparagine-β-hydroxylase, AspH) (Homo sapiens, UniProt Q12797)
T1 construct: N-Terminally His6-tagged human AspH315–758 (His6-AspH315–758) was produced in E. coli BL21 (DE3) cells; made in house; host or cells: E. coli BL21 (DE3), pET-28a(+) vector
T1 sequence (Q12797 315-758): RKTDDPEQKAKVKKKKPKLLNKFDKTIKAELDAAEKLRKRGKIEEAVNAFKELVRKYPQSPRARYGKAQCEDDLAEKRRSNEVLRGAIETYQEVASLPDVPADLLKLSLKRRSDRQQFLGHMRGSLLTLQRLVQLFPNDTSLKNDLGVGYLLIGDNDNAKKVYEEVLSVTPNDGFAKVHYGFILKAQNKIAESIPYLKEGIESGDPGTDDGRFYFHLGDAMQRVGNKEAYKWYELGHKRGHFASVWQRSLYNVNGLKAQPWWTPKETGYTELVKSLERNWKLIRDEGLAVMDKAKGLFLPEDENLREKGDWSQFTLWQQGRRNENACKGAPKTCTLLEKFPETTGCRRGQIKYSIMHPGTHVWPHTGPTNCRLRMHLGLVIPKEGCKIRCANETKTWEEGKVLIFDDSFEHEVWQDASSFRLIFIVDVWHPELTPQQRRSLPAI
Experiment: SPE-MS AspH inhibition assay (LOPAC screen at fixed 20 μM and IC50 dose-response), hydroxylation of cyclic peptide hFX-CP101–119
Type: biochemical
Conditions: for Plate 1 (% inhibition): plate 1, normalised to DMSO and 2,4-PDCA controls

[1] = LOPAC Plate 4, compound at 20 uM, substrate conversion
[2] = LOPAC Plate 4, compound at 20 uM, read-out: % inhibition
[3] = LOPAC compound at 20uM, plate 3, conversion of substrate peptide
[4] = LOPAC Plate 4, compound at 20 uM
[5] = LOPAC compound at fixed 20 uM, substrate conversion, plate 1
[6] = LOPAC compound at 20uM, plate 2, normalised to DMSO and 2,4-PDCA controls
[7] = LOPAC compound at 20uM, plate 2, conversion of substrate peptide

With `COc1ccc(C(=O)NCc2cccnc2)cc1C(=O)NCc1cccnc1` [Picotamide] the “% conversion” value [1] was 30.17%.
For `NS(=O)(=O)C#Cc1ccccc1` [Pifithrin-mu], the “% conversion” value [1] was 31.04%.
For `CC(N/C(=N\C#N)Nc1ccncc1)C(C)(C)C` (centres unmarked) [Pinacidil], the “% conversion” value [1] was 37.72%.
With `COc1cc(/C=C/C(=O)N2CCC=CC2=O)cc(OC)c1OC` [Piperlongumine] the “Plate 3 (% conversion)” value was 35.88%.
`Cc1nc2ccccn2c(=O)c1CCN1CCC(C(=O)c2ccc(F)cc2)CC1` [Pirenperone] was tested, and the “% conversion” value [1] was 26.88%.
With `CN1CCN(CC(=O)N2c3ccccc3C(=O)Nc3cccnc32)CC1` [Pirenzepine dihydrochloride] the “% conversion” value [1] was 38.08% and the inhibition at 20 µM [2] was -4.73%.
In the case of `Cc1ccc(=O)n(-c2ccccc2)c1` [Pirfenidone], the “Plate 3 (% conversion)” value [3] is reported as 40.30%.
For `O=C(O)/C=C\C(=O)O.c1cnc(N2CCN(Cc3ccc4c(c3)OCO4)CC2)nc1` [Piribedil maleate], the “% inhibition” value [4] was -4.83% and the “% conversion” value [1] was 38.12%.
With `CN1C(C(=O)Nc2ccccn2)=C(O)c2ccccc2S1(=O)=O` [Piroxicam] the “Plate 3 (% conversion)” value [3] was 39.26%.
`COc1cc([C@@H]2c3cc4c(cc3[C@H](O)[C@H]3COC(=O)[C@H]23)OCO4)cc(OC)c1OC` [Podophyllotoxin] was tested, and the “Plate 3 (% conversion)” value was 35.15%.
`CCCN[C@H]1CCc2nc(N)sc2C1` [Pramipexole dihydrochloride] was tested, and the “% conversion” value [1] was 39.77%.
For `O=C(C1CCCCC1)N1CC(=O)N2CCc3ccccc3C2C1` (centres unmarked) [Praziquantel], the “Plate 3 (% conversion)” value [3] was 41.06%.
In the case of `COc1cc2nc(N3CCN(C(=O)c4ccco4)CC3)nc(N)c2cc1OC` [Prazosin hydrochloride], the “% conversion” value [1] is reported as 34.08%.
In the case of `CC(=O)[C@H]1CC[C@H]2[C@@H]3CC=C4C[C@@H](OS(=O)(=O)[O-])CC[C@]4(C)[C@H]3CC[C@]12C.[Na+]` [Pregnenolone sulfate sodium], the “% conversion” value is reported as 34.01% and the “% inhibition” value (20 µM) is reported as 7.19%.
In the case of `CCCNC(C)C(=O)Nc1ccccc1C` (centres unmarked) [Prilocaine hydrochloride], the “% conversion” value [1] is reported as 24.92%.
In the case of `CCC1(c2ccccc2)C(=O)NCNC1=O` [Primidone], the “% conversion” value [1] is reported as 31.08%.
With `CCN(CC)CCNC(=O)c1ccc(N)cc1` [Procainamide hydrochloride] the “% conversion” value [1] was 38.98% and the inhibition at 20 µM [2] was -7.36%.
In the case of `CCN(CC)CCOC(=O)c1ccc(N)cc1` [Procaine hydrochloride], the “% conversion” value [1] is reported as 34.46% and the inhibition at 20 µM [2] is reported as 5.88%.
`CN1CCN(CCCN2c3ccccc3Sc3ccc(Cl)cc32)CC1` [Prochlorperazine dimaleate] was tested, and the “% conversion” value [1] was 48.18%.
In the case of `CC(=O)[C@H]1CC[C@H]2[C@@H]3CCC4=CC(=O)CC[C@]4(C)[C@H]3CC[C@]12C` [Progesterone], the “Plate 3 (% conversion)” value [3] is reported as 43.81%.
For `CCCN(CCC)C(=O)C(CCC(=O)O)NC(=O)c1ccccc1` (centres unmarked) [Proglumide], the “Plate 3 (% conversion)” value [3] was 27.88%.
With `CN(C)CCCN1c2ccccc2Sc2ccccc21` [Promazine hydrochloride] the “% conversion” value [1] was 39.62% and the inhibition at 20 µM [2] was -9.23%.
For `CC(CN1c2ccccc2Sc2ccccc21)N(C)C` (centres unmarked) [Promethazine hydrochloride], the “Plate 3 (% conversion)” value [3] was 42.09%.
`CC(C)[N+](C)(CCOC(=O)C1c2ccccc2Oc2ccccc21)C(C)C` [Propantheline bromide] was tested, and the “% conversion” value [1] was 33.19%.
With `CCC(=O)c1ccc2c(c1)N(CCCN(C)C)c1ccccc1S2` [Propionylpromazine hydrochloride] the “% conversion” value [1] was 44.67% and the inhibition at 20 µM [2] was -24%.
In the case of `CC(C)c1cccc(C(C)C)c1O` [Propofol], the “Plate 2 (% conversion)” value is reported as 38.08% and the inhibition at 20 µM (read-out: Plate 2 (% inhibition)) is reported as -6.34%.
`C=CC1=C(C)c2cc3[nH]c(cc4nc(cc5[nH]c(cc1n2)c(C)c5CCC(=O)O)C(CCC(=O)O)=C4C)c(C)c3C=C` [Protoporphyrin IX disodium] was tested, and the “% conversion” value [1] was 20.78% and the inhibition at 20 µM [2] was 46%.
`CNCCCC1c2ccccc2C=Cc2ccccc21` [Protriptyline hydrochloride] was tested, and the “% conversion” value [1] was 29.36% and the inhibition at 20 µM [2] was 20.8%.
With `O=c1ccc2c(OCCCCc3ccccc3)c3ccoc3cc2o1` [Psora-4] the “Plate 1 (% inhibition)” value (LOPAC compound at fixed 20 uM) was 4.97% and the “Plate 1 (% conversion)” value [5] was 34.20%.
For `NCCCCN` [Putrescine dihydrochloride], the “% conversion” value [1] was 39.89% and the inhibition at 20 µM [2] was -10%.
In the case of `NC(=O)c1cnccn1` [Pyrazinecarboxamide], the “% conversion” value [1] is reported as 32.31%.
`CN(C)C(=O)Oc1ccc[n+](C)c1` [Pyridostigmine bromide] was tested, and the “% conversion” value was 37.84%.
In the case of `COc1ccc(CN(CCN(C)C)c2ccccn2)cc1` [Pyrilamine maleate], the “Plate 3 (% conversion)” value [3] is reported as 36.13%.
In the case of `Oc1ccccc1O` [Pyrocatechol], the “Plate 1 (% conversion)” value is reported as 10.12% and the “Plate 1 (% inhibition)” value (LOPAC compound at fixed 20 uM) is reported as 76.68%.
In the case of `C[C@@H]1C(=O)NC2=Nc3cccc(Cl)c3CN21` [Quazinone], the “% conversion” value [1] is reported as 40.20% and the inhibition at 20 µM [2] is reported as -10.9%.
For `CCN(CC)CCCC(C)Nc1c2ccc(Cl)cc2nc2ccc(OC)cc12` (centres unmarked) [Quinacrine dihydrochloride], the “% conversion” value [1] was 39.58% and the inhibition at 20 µM [2] was -9.1%.
In the case of `CCCN1CCC[C@@H]2Cc3nc(N)ncc3C[C@H]21.Cl.Cl` [Quinelorane dihydrochloride], the “% conversion” value [1] is reported as 33.91%.
For `C=C[C@H]1C[N@@]2CC[C@H]1C[C@@H]2[C@@H](O)c1ccnc2ccc(OC)cc12` [Quinidine sulfate], the “% conversion” value [1] was 33.25%.
`C=C[C@H]1C[N@@]2CC[C@H]1C[C@H]2[C@H](O)c1ccnc2ccc(OC)cc12` [Quinine sulfate] was tested, and the “% conversion” value [1] was 30.14%.
`O=C(O)c1cccnc1C(=O)O` [Quinolinic acid] was tested, and the “% conversion” value [1] was 7.93% and the inhibition at 20 µM [2] was 83.6%.
`O=C(O)/C=C\C(=O)O.O=[N+]([O-])c1ccc2nc(N3CCNCC3)ccc2c1` [Quipazine, 6-nitro-, maleate] was tested, and the “% conversion” value [1] was 31.15%.
For `CCCN1CCC[C@H](c2cccc(O)c2)C1.Cl` [R(+)-3PPP hydrochloride], the “% inhibition” value [4] was 3.51% and the “% conversion” value [1] was 35.27%.
`Br.C=CCN1CCc2c(cc(O)c(O)c2Br)[C@@H](c2ccccc2)C1` [R(+)-6-Bromo-APB hydrobromide, reference compound] was tested, and the “Inhibition at 20 µM [%]” value (AspH activity, fixed compound concentration 20 μM, initial LOPAC screen, 0.5%v/v DMSO) was 95.0%, the “Plate 1 (% inhibition)” value (LOPAC compound at fixed 20 uM) was 95.00% and the “Plate 1 (% conversion)” value [5] was 3.97%.
For `C[C@@]1(C2CCCC2)Cc2cc(OCC(=O)O)c(Cl)c(Cl)c2C1=O` [R(+)-IAA-94], the “Plate 3 (% conversion)” value [3] was 30.54%.
`CN1CCc2cc(Cl)c(O)cc2[C@@H](c2ccccc2)C1.Cl` [R(+)-SCH-23390 hydrochloride] was tested, and the “Plate 2 (% inhibition)” value [6] was -3.60%.
For `CC(C)NC[C@H](O)c1ccc(O)c(O)c1.O=C(O)C(O)C(O)C(=O)O` [R(-)-Isoproterenol (+)-bitartrate], the “Plate 2 (% conversion)” value [7] was 5.85% and the “Plate 2 (% inhibition)” value [6] was 89.92%.
With `CCCN1CCc2cccc3c2[C@H]1Cc1ccc(O)c(O)c1-3.Cl` [R(-)-Propylnorapomorphine hydrochloride] the “Plate 2 (% conversion)” value was 7.83% and the “Plate 2 (% inhibition)” value (20 µM) was 84.00%.
For `Br.CCCN(CCC)[C@@H]1CCc2cccc(O)c2C1` [R-(+)-8-Hydroxy-DPAT hydrobromide], the “Plate 2 (% conversion)” value was 39.31% and the “Plate 2 (% inhibition)” value [6] was -10.03%.
For `C#CCN[C@H](C)Cc1ccccc1.Cl` [R-(-)-Desmethyldeprenyl hydrochloride], the “Plate 2 (% conversion)” value was 39.05% and the “Plate 2 (% inhibition)” value (20 µM) was -9.24%.
With `COC1(C2=NCCN2)COc2ccccc2O1.Cl` (centres unmarked) [RX 821002 hydrochloride] the “% inhibition” value [4] was -13.78% and the “% conversion” value [1] was 41.17%.
In the case of `O=C(c1ccc(OCCN2CCCCC2)cc1)c1c(-c2ccc(O)cc2)sc2cc(O)ccc12` [Raloxifene hydrochloride], the “% conversion” value [1] is reported as 40.15% and the inhibition at 20 µM [2] is reported as -10.8%.
`CNC(=C[N+](=O)[O-])NCCSCc1ccc(CN(C)C)o1` [Ranitidine hydrochloride] was tested, and the “% conversion” value [1] was 37.20% and the inhibition at 20 µM [2] was -2.13%.
With `COc1ccccc1OCC(O)CN1CCN(CC(=O)Nc2c(C)cccc2C)CC1` (centres unmarked) [Ranolazine dihydrochloride] the “% conversion” value [1] was 41.52% and the inhibition at 20 µM [2] was -14.8%.
With `Nc1c(S(=O)(=O)O)cc(Nc2ccc(Nc3nc(Cl)nc(Nc4cccc(S(=O)(=O)O)c4)n3)c(S(=O)(=O)O)c2)c2c1C(=O)c1ccccc1C2=O` [Reactive Blue 2, reference compound] the “% conversion” value was 3.94%, the inhibition at 20 µM was 95.3% and the inhibition at 20 µM (read-out: Inhibition at 20 µM [%]) was 95.3%.
With `Cc1cccc(-c2[nH]ncc2-c2ccc3ncccc3n2)n1` [RepSox] the “Plate 2 (% conversion)” value was 40.48% and the “Plate 2 (% inhibition)” value (20 µM) was -13.51%.
`COC(=O)[C@H]1[C@H]2C[C@@H]3c4[nH]c5cc(OC)ccc5c4CCN3C[C@H]2C[C@@H](OC(=O)c2cc(OC)c(OC)c(OC)c2)[C@@H]1OC` [Reserpine] was tested, and the “Plate 1 (% inhibition)” value (LOPAC compound at fixed 20 uM) was -13.78% and the “Plate 1 (% conversion)” value [5] was 40.50%.
With `Oc1ccc(/C=C/c2cc(O)cc(O)c2)cc1` [Resveratrol] the “% conversion” value [1] was 34.33%.
In the case of `CC1=C(/C=C/C(C)=C/C=C/C(C)=C/C(=O)Nc2ccc(O)cc2)C(C)(C)CCC1` [Retinoic acid p-hydroxyanilide], the “Plate 2 (% conversion)” value [7] is reported as 25.03% and the “Plate 2 (% inhibition)” value [6] is reported as 32.63%.
For `CC1=C(/C=C/C(C)=C/C=C/C(C)=C/C(=O)O)C(C)(C)CCC1` [Retinoic acid], the “% conversion” value [1] was 30.58% and the inhibition at 20 µM [2] was 17.2%.

Source: publication PMC7251097, “Aspartate/asparagine-β-hydroxylase: a high-throughput mass spectrometric assay for discovery of small molecule inhibitors” (Scientific Reports, 2020)
